{
  "source": "patent US12114987B2",
  "about": "“Perception loss detection” (OXFORD UNIVERSITY INNOVATION LIMITED, priority 2012, dated 2024)",
  "system": "slow wave oscillations in the scalp electroencephalogram",
  "text": "Multiple electrodes, including Magnetic Resonance (hereinafter “MR”) compatible 32 channel electroencephalography (hereinafter “EEG”) caps (BrainCap MR, Easycap GmbH, Herrsching, Germany) are used in the illustrated example for EEG acquisition.\nAmplifiers are connected in the illustrated example using MR-safe fibre optic cables to a universal serial bus (USB) adaptor and then to a laptop computer (or other recording and EEG processing medium), which includes the processor 18 and the database 19. The laptop simultaneously records the timings of fMRI volumes (gradient onset markers), stimuli and button presses. For the paradigm in FIG. 5, samples of the electrical signals are acquired at 5000 Hz and initially referenced to channel CPz. The amplification hardware imposes a highpass filter of 0.1 Hz and a lowpass filter of 250 Hz on acquisition. The acquisition software applies a highpass filter of 0.5 Hz and a lowpass filter of 70 Hz as well as a notch filter of 50 Hz. […]\nFor time-frequency analysis, the frequency power spectrum over time within the 0.5-30 Hz range is calculated using a multitaper spectral analysis (using Chronux®) with window size=3 s and step size=4s. Phasic changes in EEG absolute and relative power in the specific frequency bands of interest, i.e. beta (15-30 Hz), alpha (9-14 Hz), theta (4-8 Hz) and slow wave (0.5-1.5 Hz) bands, are calculated. […]",
  "data": [
    {"smiles": "CC(C)c1cccc(C(C)C)c1O", "note": "[propofol]", "values": [
      {"measurement": "peak absolute power of slow wave oscillations (0.5-1.5 Hz band), range between subjects", "setting": "16 subjects, gradual propofol administration, peak propofol level 4.0 mcg ml−1, scalp EEG", "value": "10.84-83.78 μV2"},
      {"measurement": "activity of slow wave oscillations in the scalp electroencephalogram with increasing doses", "setting": "after the human has lost verbal responsiveness, increasing doses of propofol", "value": "reaches a maximum or saturation point"}
    ]}
  ]
}
